How the values were obtained:
[1] = Solubility under the protocol conditions; format: physicochemical; details: compounds dissolved in DMSO and diluted in medium
Procedure: Among the 43 compounds tested derivatives 81, 96, 97, 100–104 were insoluble under the protocol conditions and, consequently, they were eliminated from further experiments.
Compounds were dissolved in dimethyl sulfoxide (DMSO, Sigma-Aldrich, St. Louis, MO, USA) to 125 mM. The final concentration of DMSO in the compounds dilutions was not higher than 1.00%. Drug, sulfadiazine [4-amino-N-(2-pyrimidinyl)benzenesulfonamide] (S8626, Sigma-Aldrich) was dissolved in 1M sodium hydroxide (NaOH, Sigma-Aldrich) to 400 mM. Final concertation of NaOH in sulfadiazine dilutions was not higher than 2.5%. Ready solution sulfadiazine and trimethoprim in weight ratio 5:1 (Sul-Tridin 24%, 200 mg/mL [800 mM] + 40 mg/mL [137.78 mM]– ScanVet Poland). Dilution of the all compounds and drugs were freshly prepared before the cells were exposed in appropriate medium.

[2] = Cytotoxic assay (MTT, ISO 10993-5:2009(E)), 24 h treatment; format: cell-based; details: L929 mouse fibroblast cells, L929 mouse fibroblasts, values above highest tested concentration extrapolated
Procedure: The L929 mouse fibroblast (ATTC® CCL-1™, Manassas, VA, USA) were culturing according to the ATCC product sheet. […] The cell viability assay were performed precisely according to international standards (ISO 10993-5:2009(E)), using the tetrazolium salt [3-(4,5-dimethylthiazol-2-yl)-2,5-diphenyltetrazolium bromide] (MTT, Sigma-Aldrich) and mouse fibroblasts L929 cells. Cells (1 × 10^4 per well) were treated 24 h with compounds or drug in different concentration range. The optical density at 570 nm on the ELISA reader (Multiskan EX, Labsystems, Vienna, VA, USA), was read. The results were expressed as a percentage of viability compared to untreated cells. […] The CC30/CC50 represents the concentration of tested compounds or drugs that was required for 30% or 50% cells proliferation inhibition in vitro. According to the previously mentioned ISO 10993-5:2009(E) norm, the CC30 value is recognized as non-cytotoxic concentration for the cell line. All experiments were performed in triplicate.

[3] = test system: T. gondii tachyzoites (RH strain); experiment: In vitro anti-T. gondii activity, [3H]-uracil incorporation assay in infected Hs27 cells; format: cell-based, Toxoplasma gondii; details: for IC50: Toxoplasma gondii, T. gondii RH tachyzoites proliferation in Hs27 cells, na = not active in the tested concentration range; for SR (selectivity ratio): ratio of CC50 (L929) to IC50 (T. gondii); for inhibition of proliferation, fold better (lower IC50) than sulfadiazine: relative to sulfadiazine

| SMILES | solubility under the protocol conditions [1] | melting point | CC50 at 24 h [2] | IC50 [3] | SR (selectivity ratio) [3] | inhibition of proliferation, fold better (lower IC50) than sulfadiazine [3] | inhibition of proliferation, fold better than sulfadiazine + trimethoprim (5:1) ([3]; relative to sulfadiazine + trimethoprim (5:1)) |
| --- | --- | --- | --- | --- | --- | --- | --- |
| CCOc1cc(C=NN=C2SC(=CC(=O)OC)C(=O)N2c2ccccc2Cl)ccc1O [Compound 96, Methyl [3-(2-chlorophenyl)-2-{[(3-ethoxy-4-hydroxyphenyl)methylidene]hydrazinylidene}-4-oxo-1,3-thiazolidin-5-ylidene]acetate] | insoluble | 216 to 218 °C | – | – | – | – | – |
| O=C(O)CC1SC(=NN=Cc2ccccc2O)N(c2ccc(Cl)cc2)C1=O (centres unmarked) [Compound 81, [3-(4-Chlorophenyl)-2-{[(2-hydroxyphenyl)methylidene]hydrazinylidene}-4-oxo-1,3-thiazolidin-5-yl]acetic acid] | insoluble | 234 to 236 °C | – | – | – | – | – |
| O=C(O)CC1SC(=NN=Cc2ccc(O)c(Br)c2)N(c2ccc(Cl)cc2)C1=O (centres unmarked) [Compound 87, [2-{[(3-Bromo-4-hydroxyphenyl)methylidene]hydrazinylidene}-3-(4-chlorophenyl)-4-oxo-1,3-thiazolidin-5-yl]acetic acid] | – | 254 to 255 °C | 425 µM | 116 µM | 3.66 | about 90 fold | – |
| COC(=O)C=C1SC(=NN=Cc2ccc(O)c(Cl)c2)N(c2ccccc2)C1=O [Compound 94, Methyl [2-{[(3-chloro-4-hydroxyphenyl)methylidene]hydrazinylidene}-4-oxo-3-phenyl-1,3-thiazolidin-5-ylidene]acetate] | – | 238 to 240 °C | 474 µM | 27.7 µM | 17.07 | – | 18 fold |
| COC(=O)C=C1SC(=NN=Cc2ccc(O)c(OC)c2)N(c2ccccc2)C1=O [Compound 92, Methyl [2-{[(4-hydroxy-3-methoxyphenyl)methylidene]hydrazinylidene}-4-oxo-3-phenyl-1,3-thiazolidin-5-ylidene]acetate] | – | 210 to 212 °C | 486 µM | 180 µM | 2.69 | – | – |
| COc1cc(C=NN=C2SC(CC(=O)O)C(=O)N2c2ccc(Cl)cc2Cl)ccc1O (centres unmarked) [Compound 88, [3-(2,4-Dichlorophenyl)-2-{[(4-hydroxy-3-methoxyphenyl)methylidene]hydrazinylidene}-4-oxo-1,3-thiazolidin-5-yl]acetic acid] | – | 226 to 228 °C | 566 µM | 129 µM | 4.37 | about 90 fold | – |
| O=C(O)CC1SC(=NN=Cc2ccc(O)c(Cl)c2)N(c2ccc(Cl)cc2)C1=O (centres unmarked) [Compound 86, [2-{[(3-Chloro-4-hydroxyphenyl)methylidene]hydrazinylidene}-3-(4-chlorophenyl)-4-oxo-1,3-thiazolidin-5-yl]acetic acid] | – | 256 to 257 °C | ≥ 1000 µM | 178 µM | ≥5.63 | – | – |
| COC(=O)C=C1SC(=NN=Cc2ccccc2O)N(c2ccc(Cl)cc2)C1=O [Compound 97, Methyl [3-(4-chlorophenyl)-2-{[(2-hydroxyphenyl)methylidene]hydrazinylidene}-4-oxo-1,3-thiazolidin-5-ylidene]acetate] | insoluble | 214 to 216 °C | – | – | – | – | – |
| O=C(O)CC1SC(=NN=Cc2ccc(O)cc2)N(c2ccc(Cl)cc2)C1=O (centres unmarked) [Compound 83, [3-(4-Chlorophenyl)-2-{[(4-hydroxyphenyl)methylidene]hydrazinylidene}-4-oxo-1,3-thiazolidin-5-yl]acetic acid] | – | 234 to 235 °C | 906 µM | 271 µM | 3.34 | – | – |
| COC(=O)C=C1SC(=NN=Cc2ccc(O)cc2)N(c2ccccc2)C1=O [Compound 91, Methyl [2-{[(4-hydroxyphenyl)methylidene]hydrazinylidene}-4-oxo-3-phenyl-1,3-thiazolidin-5-ylidene]acetate] | – | 222 to 224 °C | 493 µM | 92.9 µM | 5.31 | – | – |
| O=C(O)CC1SC(=NN=Cc2cccc(O)c2)N(c2ccc(Cl)cc2)C1=O (centres unmarked) [Compound 82, [3-(4-Chlorophenyl)-2-{[(3-hydroxyphenyl)methylidene]hydrazinylidene}-4-oxo-1,3-thiazolidin-5-yl]acetic acid] | – | 226 to 228 °C | 656 µM | 263 µM | 2.49 | – | – |
